# Molecular target: T1, p53 Y220C (Homo sapiens, UniProt P04637, Y220C)
# T1 construct: The recombinant protein was a truncation mutant containing only amino acids 94-312 of p53; made in house; host or cells: E. coli
# Assay: In vitro DNA binding activity assay (HTRF / TR-FRET): stabilization of p53 Y220C and increase of its DNA binding activity
# Type: biochemical
# Conditions: recombinant His-tagged p53 Y220C DNA binding domain (aa 94-312), biotin-labeled consensus DNA, incubated at 27° C. or 29° C. for 60 min
# Outline: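 Stabilization of the mutant is inferred from increased binding of His-tagged p53 Y220C to a biotin-labeled consensus DNA, detected by HTRF with europium-streptavidin and APC-anti-His antibody. The concentration giving a 50% rise over compound-free binding is reported as SC150.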
# T1 sequence (P04637 94-312, change not shown): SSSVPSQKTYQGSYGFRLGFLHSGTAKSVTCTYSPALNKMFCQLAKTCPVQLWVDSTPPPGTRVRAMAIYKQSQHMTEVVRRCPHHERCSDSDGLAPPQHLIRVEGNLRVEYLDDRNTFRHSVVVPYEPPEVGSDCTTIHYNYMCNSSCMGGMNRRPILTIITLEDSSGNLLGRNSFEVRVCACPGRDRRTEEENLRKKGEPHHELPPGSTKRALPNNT
row,SMILES,SC150 (concentration of the compound required to increase the DNA binding activity by 50%)
1,"COc1cc(S(C)(=O)=O)ccc1NCC#Cc1cc2c(N[C@H]3CCN(C(C)=O)[C@@H](C)C3)cccc2n1CC(F)(F)F (stereo in doubt) [Compound 739A, 1-{4-[(2-{3-[(4-methanesulfonyl-2-methoxyphenyl)amino]prop-1-yn-1-yl}-1-(2,2,2-trifluoroethyl)-1H-indol-4-yl)amino]-2-methylpiperidin-1-yl}ethan-1-one]",+ (+ = 0 μM ≤ SC150 < 0.05 μM)
2,"COc1cc(S(C)(=O)=O)ccc1NCC#Cc1cc2c(N[C@H]3CCN(C)C[C@H]3F)cccc2n1CC(F)(F)F (stereo in doubt) [Compound 773A, N-[(3R,4S)-3-fluoro-1-methylpiperidin-4-yl]-2-{3-[(4-methanesulfonyl-2-methoxyphenyl)amino]prop-1-yn-1-yl}-1-(2,2,2-trifluoroethyl)-1H-indol-4-amine]",+ (+ = 0 μM ≤ SC150 < 0.05 μM)
3,"COc1cc(S(C)(=O)=O)ccc1NCC#Cc1cc2c(N[C@H]3CCN(C)C[C@@H]3F)cccc2n1CC(F)(F)F (stereo in doubt) [Compound 774A, N-((3S,4S)-3-fluoro-1-methylpiperidin-4-yl)-2-(3-((2-methoxy-4-(methylsulfonyl)phenyl)amino)prop-1-yn-1-yl)-1-(2,2,2-trifluoroethyl)-1H-indol-4-amine]",+ (+ = 0 μM ≤ SC150 < 0.05 μM)
4,"COC(=O)c1ccc(NCC#Cc2cc3c(N[C@H]4CCN(C)C[C@H]4F)cccc3n2CC(F)(F)F)c(OC)c1 (stereo in doubt) [Compound 794A, methyl 4-{[3-(4-{[(3R,4S)-3-fluoro-1-methylpiperidin-4-yl]amino}-1-(2,2,2-trifluoroethyl)-1H-indol-2-yl)prop-2-yn-1-yl]amino}-3-methoxybenzoate]",+ (+ = 0 μM ≤ SC150 < 0.05 μM)
5,"COc1cc(S(C)(=O)=O)ccc1NCC#Cc1cc2c(N(C)C)cccc2n1CC(F)(F)F [Compound 1A, 2-{3-[(4-methanesulfonyl-2-methoxyphenyl)amino]prop-1-yn-1-yl}-N,N-dimethyl-1-(2,2,2-trifluoroethyl)-1H-indol-4-amine]",+++ (+++ = 0.1 μM ≤ SC150 < 0.2 μM)
6,"COCCNc1cccc2c1cc(C#CCNc1ccc(S(N)(=O)=O)cc1OC)n2CC(F)(F)F [Compound 2A, 3-methoxy-4-[(3-{4-[(2-methoxyethyl)amino]-1-(2,2,2-trifluoroethyl)-1H-indol-2-yl}prop-2-yn-1-yl)amino]benzene-1-sulfonamide]",++ (++ = 0.05 μM ≤ SC150 < 0.1 μM)
7,"COc1cc(S(N)(=O)=O)ccc1NCC#Cc1cc2c(NCC(N)=O)cccc2n1CC(F)(F)F [Compound 3A, 2-[(2-{3-[(2-methoxy-4-sulfamoylphenyl)amino]prop-1-yn-1-yl}-1-(2,2,2-trifluoroethyl)-1H-indol-4-yl)amino]acetamide]",++++ (++++ = 0.2 μM ≤ SC150 < 1 μM)
8,"COc1cc(S(N)(=O)=O)ccc1NCC#Cc1cc2c(NC(CCO)CCO)cccc2n1CC(F)(F)F [Compound 4A, 4-[(3-{4-[(1,5-dihydroxypentan-3-yl)amino]-1-(2,2,2-trifluoroethyl)-1H-indol-2-yl}prop-2-yn-1-yl)amino]-3-methoxybenzene-1-sulfonamide]",+ (+ = 0 μM ≤ SC150 < 0.05 μM)
9,"COc1cc(S(C)(=O)=O)ccc1NCC#Cc1cc2c(NC(C)=O)cccc2n1CC(F)(F)F [Compound 5A, N-(2-{3-[(4-methanesulfonyl-2-methoxyphenyl)amino]prop-1-yn-1-yl}-1-(2,2,2-trifluoroethyl)-1H-indol-4-yl)acetamide]",++++ (++++ = 0.2 μM ≤ SC150 < 1 μM)
10,"COc1cc(S(C)(=O)=O)ccc1NCC#Cc1cc2c(NC(=O)NC3CCN(C)CC3)cccc2n1CC(F)(F)F [Compound 6A, 3-(2-{3-[(4-methanesulfonyl-2-methoxyphenyl)amino]prop-1-yn-1-yl}-1-(2,2,2-trifluoroethyl)-1H-indol-4-yl)-1-(1-methylpiperidin-4-yl)urea]",++++ (++++ = 0.2 μM ≤ SC150 < 1 μM)
11,"COc1cc(C(N)=O)ccc1NCC#Cc1cc2c(NC(=O)NC3CCN(C)CC3)cccc2n1CC(F)(F)F [Compound 7A, 3-methoxy-4-{[3-(4-{[(1-methylpiperidin-4-yl)carbamoyl]amino}-1-(2,2,2-trifluoroethyl)-1H-indol-2-yl)prop-2-yn-1-yl]amino}benzamide]",++++ (++++ = 0.2 μM ≤ SC150 < 1 μM)
12,"COc1cc(S(C)(=O)=O)ccc1NCC#Cc1cc2c(NC(=O)N3CCN(C)CC3)cccc2n1CC(F)(F)F [Compound 8A, N-(2-{3-[(4-methanesulfonyl-2-methoxyphenyl)amino]prop-1-yn-1-yl}-1-(2,2,2-trifluoroethyl)-1H-indol-4-yl)-4-methylpiperazine-1-carboxamide]",++++ (++++ = 0.2 μM ≤ SC150 < 1 μM)
13,"COc1cc(C(N)=O)ccc1NCC#Cc1cc2c(NC(=O)N3CCN(C)CC3)cccc2n1CC(F)(F)F [Compound 9A, N-(2-{3-[(4-carbamoyl-2-methoxyphenyl)amino]prop-1-yn-1-yl}-1-(2,2,2-trifluoroethyl)-1H-indol-4-yl)-4-methylpiperazine-1-carboxamide]",++++ (++++ = 0.2 μM ≤ SC150 < 1 μM)
14,"COc1cc(S(C)(=O)=O)ccc1NCC#Cc1cc2c(NC(=O)N[C@H]3CC[C@@H](N(C)C)CC3)cccc2n1CC(F)(F)F [Compound 10A, 3-(2-{3-[(4-methanesulfonyl-2-methoxyphenyl)amino]prop-1-yn-1-yl}-1-(2,2,2-trifluoroethyl)-1H-indol-4-yl)-1-[(1S,4S)-4-(dimethylamino)cyclohexyl]urea]",++++ (++++ = 0.2 μM ≤ SC150 < 1 μM)
15,"COc1cc(S(C)(=O)=O)ccc1NCC#Cc1cc2c(NC(=O)Nc3ccncc3)cccc2n1CC(F)(F)F [Compound 11A, 1-(2-(3-((2-methoxy-4-(methylsulfonyl)phenyl)amino)prop-1-yn-1-yl)-1-(2,2,2-trifluoroethyl)-1H-indol-4-yl)-3-(pyridin-4-yl)urea]",++++ (++++ = 0.2 μM ≤ SC150 < 1 μM)
16,"COc1cc(S(C)(=O)=O)ccc1NCC#Cc1cc2c(NC(=O)N[C@H]3CC[C@H](N(C)C)CC3)cccc2n1CC(F)(F)F [Compound 12A, 3-(2-{3-[(4-methanesulfonyl-2-methoxyphenyl)amino]prop-1-yn-1-yl}-1-(2,2,2-trifluoroethyl)-1H-indol-4-yl)-1-[(1R,4R)-4-(dimethylamino)cyclohexyl]urea]",+ (+ = 0 μM ≤ SC150 < 0.05 μM)
17,"COCCN1CCC(NC(=O)Nc2cccc3c2cc(C#CCNc2ccc(S(C)(=O)=O)cc2OC)n3CC(F)(F)F)CC1 [Compound 13A, 3-(2-{3-[(4-methanesulfonyl-2-methoxyphenyl)amino]prop-1-yn-1-yl}-1-(2,2,2-trifluoroethyl)-1H-indol-4-yl)-1-[1-(2-methoxyethyl)piperidin-4-yl]urea]",++++ (++++ = 0.2 μM ≤ SC150 < 1 μM)
18,"COc1cc(S(C)(=O)=O)ccc1NCC#Cc1cc2c(NC(=O)NC3CCN(C4CCOCC4)CC3)cccc2n1CC(F)(F)F [Compound 14A, 3-(2-{3-[(4-methanesulfonyl-2-methoxyphenyl)amino]prop-1-yn-1-yl}-1-(2,2,2-trifluoroethyl)-1H-indol-4-yl)-1-[1-(oxan-4-yl)piperidin-4-yl]urea]",++++ (++++ = 0.2 μM ≤ SC150 < 1 μM)
19,"COc1cc(S(C)(=O)=O)ccc1NCC#Cc1cc2c(NC(=O)NC3CCN(CC(O)CO)CC3)cccc2n1CC(F)(F)F (centres unmarked) [Compound 15A, 1-[1-(2,3-dihydroxypropyl)piperidin-4-yl]-3-(2-{3-[(4-methanesulfonyl-2-methoxyphenyl)amino]prop-1-yn-1-yl}-1-(2,2,2-trifluoroethyl)-1H-indol-4-yl)urea]",++++ (++++ = 0.2 μM ≤ SC150 < 1 μM)
20,"COc1cc(S(C)(=O)=O)ccc1NCC#Cc1cc2c(NC(=O)NC3CCN(CC(N)=O)CC3)cccc2n1CC(F)(F)F [Compound 16A, 2-(4-{[(2-{3-[(4-methanesulfonyl-2-methoxyphenyl)amino]prop-1-yn-1-yl}-1-(2,2,2-trifluoroethyl)-1H-indol-4-yl)carbamoyl]amino}piperidin-1-yl)acetamide]",++++ (++++ = 0.2 μM ≤ SC150 < 1 μM)
21,"COc1cc(S(C)(=O)=O)ccc1NCC#Cc1cc2c(NC(=O)NC3CCN(CCO)CC3)cccc2n1CC(F)(F)F [Compound 17A, 1-[1-(2-hydroxyethyl)piperidin-4-yl]-3-(2-{3-[(4-methanesulfonyl-2-methoxyphenyl)amino]prop-1-yn-1-yl}-1-(2,2,2-trifluoroethyl)-1H-indol-4-yl)urea]",++++ (++++ = 0.2 μM ≤ SC150 < 1 μM)
22,COc1cc(S(N)(=O)=O)ccc1NCC#Cc1cc2c(NC3CC4(COC4)C3)cccc2n1CC(F)(F)F [Compound 18A],+ (+ = 0 μM ≤ SC150 < 0.05 μM)
23,"COc1cc(S(C)(=O)=O)ccc1NCC#Cc1cc2c(NC3CC(CO)(CCl)C3)cccc2n1CC(F)(F)F (centres unmarked) [Compound 19A, [1-(chloromethyl)-3-[(2-{3-[(4-methanesulfonyl-2-methoxyphenyl)amino]prop-1-yn-1-yl}-1-(2,2,2-trifluoroethyl)-1H-indol-4-yl)amino]cyclobutyl]methanol]",+ (+ = 0 μM ≤ SC150 < 0.05 μM)

# Source: US12428406B2 (PMV Pharmaceuticals, Inc., priority 2019, dated 2025)
